Measured values reported in patent publication EP0004835A1, “Ethanolamine compounds, processes for their preparation, pharmaceutical preparations containing them and their medicinal use” (priority 1978, dated 1979).
Where “and” joins values, the source holds several entries; their conditions need not be identical. Identical values can stand only once. Counter-ions that a name gives are not always drawn. Like-named read-outs stand apart in the source and are kept apart here.

Columns and labels:
a-receptor = a-receptor blocking activity, noradrenaline-induced contraction of rabbit aortic strips; parameters: species or system Albino rabbits; conditions: for IC50: compound added 10 minutes before noradrenaline, called EC 50, 6 preparations from 3 animals, read-out: Concentration inhibiting 50 % noradrenaline-induced contraction
Source text: The a-receptor blocking activity of two compounds of the invention was investigated. This effect is relevant in the treatment of asthma. It has been shown, e.g. by Nousiainen et al, Pharmacology 15, 469-477 (1977), that certain compounds having a-blocking effect may potentiate the effects of S-receptor-stimulating agents such as terbutaline.
In the test, the a-receptor blocking substance thymoxamine was used as reference.
Albino rabbits of both sexes (2-3 kg) were used. About 5 cm of the aorta was dissected out as near the arch as possible, transferred to a dish with Krebs solution and cut spirally. Usually 3 preparations were received from the dissected piece of vessel. Each strip was mounted in an organ bath in Krebs solution of 37°C and aerated with carbogen. The load on the preparation was 2 g and the tension changes recorded isometrically on Grass transducer FR03 and polygraph P5.
Noradrenaline, which is a strong a-receptor stimulating agent, exerts a contracting effect on the aortic strips when added to the bath. The a-receptor blocking effect of the test compound is measured by adding the test compound to the organ bath before adding nor-adrenaline.
Noradrenaline solution with a concentration producing 70-80 % of maximal contraction (0.03-0.06 µg/ml) was used. The test compound was added to the organ bath 10 minutes before the addition of noradrenaline.
The results are measured as the concentration of the test compound which inhibits the noradrenaline-induced contraction by 50 % (EC 50).
The EC 50 values are based on tests on 6 preparations obtained from 3 animals.

heart frequency = experiment: Heart stimulating effect in anaesthetized cat (simultaneous recording); format: in vivo
Protocol: (§1) A. Simultaneous recording of bronchospasmolytic effect, tremorogenic effect and heart stimulating effect
(§2) The method used is described in detail by 0 A T Olsson, Acta pharmacol et toxicol 34, 106-114 (1974).
(§3) Cats weighing 2.5-3.5 kg are anaesthetized with pento- barbital (mebumalum NFN) at first by an intraperitoneal injection (30 mg/kg) and afterwards by continuous intravenous infusion to keep the level of anaesthesia constant during the experiment.
Arterial blood pressure is measured with a Statham transducer from a cannulated carotid artery. Heart frequency is monitored by means of a tachometer set to trigger off the R-wave of the electro-cardiogram.
(§4) The bronchospasmolytic effect is measured as the dose, calculated in moles per kg bodyweight of the test animal, which gives 30 % decrease of the histamine induced bronchospasm. […] The heart stimulating effect is measured as the dose, calculated in moles per kg bodyweight of the test animal, which gives 25 % increase in the heart frequency.

[1] = tested on: histamine induced bronchospasm; experiment: Bronchospasmolytic effect in anaesthetized cat (simultaneous recording); format: in vivo; conditions: narcotized cat, i.v. (brachial vein), based on molar dose giving 30 % decrease of histamine induced bronchospasm, terbutaline = 1
Protocol: as §1
(§5) The bronchospasmolytic effect and the tremorogenic effect were measured simultaneously in anaesthetized cat.
as §2, §3
The trachea is cannulated and the lungs inflated with room air by means of a constant volume Braun-respirator. The frequency is 15-20 per min and the tidal volume 8-10 ml per kg, or just sufficient to suppress spontaneous breathing movements and to give about 150 ml/kg/min. The change in tidal volume from administered constricting agents is measured as the amount of air overflow from the delivery of a constant volume to a fixed respiration. The pressure is determined by a water (60-70 mm) pressure threshold and respiratory overflow determined by means of a Grass-volumetric pressure transducer PT 5A. Bronchial tone is increased by inhalation of a histamine aerosol generated in a Roth-Petersen nebulizer from a solution containing 0.1-0.3 mg/ml of histamine and made up to 5 % by glycerol. The nebulizer is connected to the inlet of the respirator when bronchospasm is to be produced. When the respiratory overflow has reached an even level, .the compound to be tested for bronchorealxing activity is injected into the brachial vein.
as §4

[2] = tested on: electrically induced contractions of the soleus muscle; experiment: Tremorogenic effect in anaesthetized cat (soleus muscle, simultaneous recording); format: in vivo; conditions: narcotized cat, i.v., based on molar dose giving 30 % decrease of electrically induced soleus contractions, terbutaline = 1
Protocol: as §1, §5, §2, §3
The soleus muscle in the hind limb, consisting mainly a -slow contracting fibres, is prepared essentially according to Bowman & Zaimis, J Physiol 144, 92-107 (1958). The muscle is enclosed in a chamber made of a rubbercovered plastic "hair-curler". The entire leg is wrapped in metal foil covered with plastic to keep the temperature constant at 35-36°C (controlled by thermo couples in the.leg). The cat is placed on its back on a thermostatically controlled operation table and the right hind limb fixed, special care being taken not to impede the blood flow.The tendon is cut and attached to a Grass strain gauge (FT 10C). The isometric tension of the muscle is calibrated to 50 g (resting tension) and 500 g (maximal tension). A plexiglas shielded bipolar Pt-electrode is placed on the tibialis nerve, near the soleus. The incomplete tetanic contractions of the muscle are elicited by a square wave pulse stimulation of the nerve by the use of a Grass S48 stimulator. The pulse duration is 0.05 msec, with frequencies selected in the range 8-12 Hz and the strength between 5-8. volts. The stimulation occurs for 1.8 sec every 20 sec.
as §4

[3] = tested on: histamine induced bronchoconstriction; experiment: Bronchospasmolytic activity at oral and subcutaneous administration, histamine aerosol, unanaesthetized guinea-pigs; format: in vivo; conditions: for ED50: Cavia porcellus, read-out: Dose protecting 50 % of the test animals against the histamine aerosol during more than 4 minutes (ED50)
Protocol: .The bronchospasmolytic activity of a compound of the invention at oral administration was tested on guinea-pigs. The compound according to Example 1 having the code designation D 2343, was tested. Terbutaline was used as reference substance.
The bronchospasmolytic effect was tested as the inhibitory effect on histamine induced bronchoconstriction in unanaesthetized guinea-pigs.
The test animals were exposed to a histamine mist generated by a Roth-Petersen nebulizer from a solution of 0.3 mg/ml of histamine-chloride.
Guinea-pigs, strain Dunkin-Hartle.y, both sexes, 190-250 g were used. Saline treated control animals start a forced and irregular breathing after less than 4 minutes exposure to the aerosol. Drug-treated animals sustaining the histamine aerosol 4 minutes without a breathing influence are regarded as protected. In the study with oral administration, the animals were starved for about 15 hours with water ad libitum before D 2343 or terbutaline was administered by a stomach tube.
Each compound was administered to 30-40 animals.
In the investigation with oral administration the time from drug administration to exposure of the animal to histamine was 30 minutes.
The ED50 doses are calculated on molar basis in moles per kg bodyweight of the test animal.

Acute toxicity in mice = conditions: mouse, in vivo
Protocol: The acute toxicity of the compound D 2343 of the invention was investigated.
Male mice (NMRI) 20-25 g were used. The test compound was administered intravenously (by tail vein), subcutaneously. intraperitoneally and orally (by stomach tube to starved animals) in 6 dose levels in log- sequence with 10 or more animals tested at each dose level to determine the LD50'
After toxic doses the death followed within the first hour after i.v., s.c. and i.p. and during the first three hours after p.o. administration. No further mortality was noted during the following 5 days the animals were observed.

rat uterus = rat uterus (Rattus norvegicus, UniProt P10608); experiment: Inhibitory activity on oxytocin and carbachol induced contractions of rat uterus in vitro; parameters: species or system Sprague-Dawley rats; conditions: result in words
Sequence of rat uterus (P10608 whole entry): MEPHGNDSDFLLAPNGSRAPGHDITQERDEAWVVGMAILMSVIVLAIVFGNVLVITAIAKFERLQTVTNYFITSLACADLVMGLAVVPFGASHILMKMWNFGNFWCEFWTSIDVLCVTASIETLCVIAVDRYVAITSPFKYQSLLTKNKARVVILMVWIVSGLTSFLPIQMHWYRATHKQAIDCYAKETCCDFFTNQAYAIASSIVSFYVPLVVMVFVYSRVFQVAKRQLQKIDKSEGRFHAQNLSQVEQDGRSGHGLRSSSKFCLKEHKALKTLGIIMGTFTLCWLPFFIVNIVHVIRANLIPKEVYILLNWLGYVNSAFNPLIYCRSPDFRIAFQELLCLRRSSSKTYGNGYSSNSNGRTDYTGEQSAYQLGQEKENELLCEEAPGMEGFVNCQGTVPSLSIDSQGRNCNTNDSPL
Protocol: 'The uterus relaxing effect of the compounds of the invention was tested. Terbutaline was used as reference substance.
Female Sprague-Dawley rats, 150-200 g, were used. An oestrogen steroid (Estradurin, Leo), 0.25 mg/100 g, was administered s.c. 4-6 days before the experiments to bring the animals in oesterus.
The uterus horn were cut open longitudinally, mounted in organ baths in Locke solution at 33°C and gassed with carbogen. The contraction of the preparation was producted by oxytocin (Partocon, Ferring) or carbachol and given to the bath 3 min after administration of the test substance in a dose producing 70-80 % of the maximum contraction or 0.005-0.02 IE/ml of oxytocin and 0.2-0.6 µg/ml of carbacho- line chloride. The inhibitory effect produced by the test substance was eliminated by propranolol (1 µg/ml or 0.4x10^-5 M given to the bath 15 minutes before the drugs).
The tension changes were recorded isometrically (transducer FP03 and Grass polygraph P5).
The results are given as the concentration of the test compound which reduces the contraction induced by oxytocin and carbachol, respectively, by 50 % (EC 50).
Oxytocinseries: 10 preparations from 6 animals Carbacholseries: 9 preparations from 5 animals

[4] = tested on: histamine induced bronchoconstriction; experiment: Onset and duration of bronchospasmolytic activity after oral administration, histamine aerosol, unanaesthetized guinea-pigs; format: in vivo; conditions: result in words
Protocol: These compounds have the structural formulas [drawing 91] (Compound of Example 1) [drawing 92] (Compound of Example 4) The bronchospasmolytic effect was tested as the inhibitory effect on histamine induced bronchoconstriction in unanaesthetized guinea-pigs. The test animals were exposed to a histamine mist generated by a Roth-Petersen nebulizer from a solution of 0.3 mg/ml of histamine-chloride. Guinea-pigs, strain Dunkin-Hartley, both sexes, 160-230 g were used. Saline treated control animals start a forced and irregular breathing after less than 4 minutes exposure to the aerosol. Drug-treated animals sustaining the histamine aerosol 4 minutes without a breathing influence are regarded as protected. The animals were starved for about 15 hours with water ad libitum before the test compound was administered by a stomach tube. Each of the test substances was given in an amount of 4.10^-6 mole/kg bodyweight. Groups of 8-10 animals were tested in the aerosol at 7, 15, 30, 60 and 120 minutes after administration of the test substance. The percentage of the animals which could withstand the aerosol for 4 minutes and for 10 minutes was determined.

[5] = 0.5 h, Oral administration (stomach tube, starved), 30 minutes before histamine
[6] = sc, 0.25 h, Subcutaneous administration, 15 minutes before histamine challenge

`COc1ccccc1CC(C)(C)NCC(O)c1ccc(O)cc1` (centres unmarked) [[drawing]] gave an IC50 (a-receptor; rabbit aortic strips) of 0.5 ± 0.2 µM.
For `CCOc1ccccc1CCC(C)(C)NCC(O)c1ccc(O)cc1` (centres unmarked) [D 2388, 1-(4-hydroxyphenyl)-2-[1,1--dimethyl-3-(2-ethoxyphenyl)propylamino]-ethanol hydrochloride], the “Heart stimulating effect in relation to the heart stimulating effect of terbutaline” value (“Heart stimulating effect in relation” for short) (heart frequency; cat, in vivo, iv) was 1, the “Bronchospasmolytic effect in relation to the bronchospasmolytic effect of terbutaline” value (shortened to “Bronchospasmolytic effect in relation”) [1] was 1.4±0.2 and the “Tremorogenic effect in relation to the tremorogenic effect of terbutaline” value (“Tremorogenic effect in relation” below) [2] was 0.8±0.2.
With `CC(C)(C)NCC(O)c1cc(O)cc(O)c1` (centres unmarked) [Terbutaline, terbutaline, reference compound] the “Heart stimulating effect in relation” value (heart frequency; cat, in vivo, iv) was 1, the “Bronchospasmolytic effect in relation” value [1] was 1 and the “Tremorogenic effect in relation” value [2] was 1. For the same molecule, the ED50 [3, 5] was 5.28 ± 0.86 µmol/kg and the ED50 [3, 6] was 0.93 ± 0.14 µmol/kg.
In the case of `CC(=O)Oc1cc(C(C)C)c(OCCN(C)C)cc1C` [Thymoxamine, thymoxamine, reference compound], the IC50 (a-receptor; rabbit aortic strips) is reported as 1.5 ± 0.4 µM.
With `COc1ccccc1CC(C)(C)NCC(O)c1ccc(O)cc1` (centres unmarked) [D 2331, 1-(4-Hydroxyphenyl)-2-[1,1-dimethyl--2-(2-methoxyphenyl)ethylaminol]ethanol sulfate] the “Heart stimulating effect in relation” value (heart frequency; narcotized cat, i.v., based on molar dose giving 25 % increase in heart frequency, terbutaline = 1) was 0.02, the “Bronchospasmolytic effect in relation” value [1] was 0.12±0.03 and the “Tremorogenic effect in relation” value [2] was 0.011±0.004.
With `COc1ccccc1CCC(C)(C)NCC(O)c1ccc(OC(=O)c2ccc(C)cc2)cc1` (centres unmarked) [D 2375, 1-[4-(4-Methylbenzoyloxy)--phenyl]-2-[1,1-dimethyl-3-(2-methoxyphenyl)propylaminolethanol sulfate] the “Heart stimulating effect in relation” value (heart frequency; cat, in vivo, iv) was 0.26±0.04, the “Bronchospasmolytic effect in relation” value [1] was 0.25±0.05 and the “Tremorogenic effect in relation” value [2] was 0.18 ±0.03.
Work on `COc1ccccc1CCC(C)(C)NCC(O)c1ccc(O)cc1.Cl` (centres unmarked) [D 2343, 1-(4-hydroxyphenyl)--2-[1,1-dimethyl-3-(2-methoxyphenyl)propylamino]-ethanol hydrochloride] yielded an LD50 (Acute toxicity in mice; ip, male mice (NMRI)) of 45 mg/kg, an LD50 (Acute toxicity in mice; ip, male mice (NMRI), M = 378.5) of 120 µmol/kg and an LD50 (Acute toxicity in mice; iv, male mice (NMRI)) of 13 mg/kg. The LD50 (Acute toxicity in mice; iv, male mice (NMRI), M = 378.5) was 35 µmol/kg, the LD50 (Acute toxicity in mice; po, starved male mice (NMRI)) was 170 mg/kg and the LD50 (Acute toxicity in mice; po, starved male mice (NMRI), M = 378.5) was 450 µmol/kg. The LD50 (Acute toxicity in mice; sc, male mice (NMRI)) was 50 mg/kg, the LD50 (Acute toxicity in mice; sc, male mice (NMRI), M = 378.5) was 130 µmol/kg and the “Bronchospasmolytic effect in relation” value ([1]; hydrochloride) was 2.9 ±0.6. The “Tremorogenic effect in relation” value ([2]; hydrochloride) was 0.5 and 0.5 ±0.1, the “potency as uterus relaxing agent compared with terbutaline” value (rat uterus) was “more potent as uterus relaxing agent than terbutaline” and the ED50 [3, 5] was 2.51 ± 0.39 µmol/kg. For the same molecule, the ED50 [3, 6] was 0.34 ± 0.06 µmol/kg, the “times more active than terbutaline” value ([3]; oral administration) was 2.1 times and the “times more active than terbutaline” value ([3]; subcutaneous administration) was 2.7 times. The IC50 (a-receptor; rabbit aortic strips) was 0.6 ± 0.2 µM, the “a-receptor blocking activity compared with thymoxamine” value (a-receptor; rabbit aortic strips, result in words) was “higher than the a-blocking effect of thymoxamine” and the “a-blocking effect in relation to β-stimulating effect” value (a-receptor; result in words, no data shown) was “obtained in the same dose range as its β-stimulating effect”.
With `COc1ccccc1CCC(C)(C)NCC(O)c1ccc(OC(=O)C(C)(C)C)cc1` (centres unmarked) [D 2367, 1-[4-Pivaloyloxy-phenyl]-2-[1,1-dimethyl-3-(2-methoxyphenyl)propylaminolethanol sulfate] the “Heart stimulating effect in relation” value (heart frequency; cat, in vivo, iv) was 0.16±0.05, the “Bronchospasmolytic effect in relation” value [1] was 0.28±0.07 and the “Tremorogenic effect in relation” value [2] was 0.23 ±0.07. The “duration of bronchospasmolytic activity” value [4] was “considerably prolonged compared to the duration of the compound of example 1”.
